We go through 11 compounds from US12162836B2, “N-acyl-{4-[(4-aryl-phenyl)sulfonylmethyl]piperidine} compounds and their therapeutic use” (Modern Biosciences Limited, priority 2019, dated 2024).

In brackets after ≈: the same amount, converted by molar mass.

Series [1] deals with human hepatocytes. In words: Human Hepatocyte Stability. Type of series: in vitro ADME. The following applies: for metabolic stability (in words): human hepatocytes. The method, then: (§1) Metabolic stability of test compounds was measured by determination of the rate of disappearance of the compound when incubated in the presence of human hepatocytes, a primary source of the most important enzymes (cytochrome P450s) involved in drug metabolism. Study of drug stability in the presence of primary hepatocytes is accepted as a valuable model permitting rapid prediction of in vivo drug stability.
(§2) Human hepatocytes were obtained from a commercial source and viability was assessed using a trypan blue solution prior to use. Test compounds (final concentration 1 μM, 0.1 DMSO, 0.9% acetonitrile) or a marker (diclofenac or diltiazem, final assay concentration 1 μM, 0.1% DMSO, 0.9% acetonitrile) were incubated with pooled hepatocytes for a 60 minute period and samples removed at up to 6 time points and analysed by LC-MS/MS for the presence/amount of test compounds.
(§3) Each compound was incubated for 0, 5, 15, 30, 45, or 60 minutes. The reactions were stopped by the addition of methanol containing an internal standard (1 μM Tolbutamide) at the appropriate time points, mixed and placed at −20° C. for 1 hour to quench and allow protein to precipitate. All samples were centrifuged (2500× g, 20 minutes, 4° C.). The aliquots were analysed using LC-MS/MS. Reactions were performed in duplicate at 37° C.
(§4) Data were processed, and the results plotted as In(concentration) vs. time. The elimination rate constant (slope of the regression line, k) was calculated using the following formula, where C(t) is the concentration at time t and C(0) is the starting concentration:
(§5) The half-life (t1/2) was calculated using the following formula: […]
(§6) The intrinsic clearance (Clint) was calculated using the following formula, where [cell] is the hepatocyte concentration in the assay: […]

Series [2] can be described thus: Aqueous solubility in FaSSIF. Type of series: physicochemical. The note with it: for solubility at 16 h: kinetic from dmso stock, pH 6.5, 16 hours, room temperature. The method, then:
Aqueous solubility was measured by equilibration of compounds with fasted state simulated intestinal fluid (FaSSIF) and quantified spectrophotometrically.
Preparation of blank FaSSIF: 0.21 g of sodium hydroxide (NaOH) pellets, 1.97 g of dihydrogen sodium phosphate (NaH2PO4.2H2O) and 3.09 g of sodium chloride (NaCl) were dissolved in 400 mL of deionised water. The pH was adjusted to 6.5 using 1 M hydrochloric acid and further deionised water added to a final volume of 500 mL.
Preparation of FaSSIF: 0.056 g of SIF Powder (containing sodium taurocholate and lecithin) (Pharses A G) was dissolved in 25 mL of blank FaSSIF and stirred until the powder was completely dissolved. The solution was allowed to stand for 2 hours during which it became opalescent; it was used within 24 hours. The final solution composition was characterised as follows: • Sodium taurocholate: 3 mM • Lecithin: 0.75 mM • Osmolarity: 270±10 mOsmol • pH: 6.5
The optical density was measured at the end of the incubation period for test compounds and a reference used to determine solubility. In brief, two samples were prepared for each determination: a reference sample consisting of a stock solution of test compound in DMSO diluted in system solution (a phosphate free, low absorption buffer) and propanol; and a test sample (prepared in triplicate) consisting of 0.5 mL FaSSIF spiked with test compound at 0.2 mM. Each sample was incubated at room temperature for 16 hours with constant shaking at 250 rpm. At the end of the incubation period, 0.3 mL of each sample was filtered through a pION filter plate (PION, Woburn MA), diluted 1:1 with propanol and scanned using UV spectrophotometry at Amax ([…]) using a Spectra Max Plus—Version 2.1000 (Molecular Devices, Sunnyvale, CA), with pSOL Explorer solubility determination software (pION, Woburn, MA).
FaSSIF solubility was calculated using the following formula:
[formula] • wherein: • “OD” is the optical density; • “Cr” is the concentration of the reference (33.4 μM); and • “molecular weight” is for the test compound (e.g., 381.44 for ABD735).

Series [3] relates to Thp1 human monocytic cells. Put plainly: Thp1 Monocyte ATP Production Assay (ATPlite). It counts as cell-based. The note with it: Thp1 cells, 24 hour incubation, 9-point concentration range from 10 μM to 10 nM, mean of 2 independent experiments. As to the method: In vitro potency of test compounds was determined by incubation with Thp1 human monocytic cells and subsequent determination of Adenosine TriPhosphate (ATP) levels using firefly luciferase.
ATP is present in all metabolically active cells. When cells lose integrity, their ability to synthesise ATP is rapidly lost. […] See, e.g., Kang et al., 2015; Jiang et al., 2013. Levels of ATP can be monitored using a system based on firefly (Photinus pyralis) luciferase (see, e.g., Auld et al., 2009) using commercially available kits. A system known as ATPlite™ was using to measure effects of the test compounds on cellular viability in vitro. This one-step assay system is an adenosine triphosphate (ATP) monitoring system based on the production of light caused by the reaction of ATP from the cells with added luciferase and D-luciferin, as illustrated in the reaction scheme below:
Thp1 cells were plated at 112500 cells per well in 125 μL RPMI-1640 (no glucose) with 1% FBS in 96-well plates. Test compounds were prepared as 100 mM solutions in DMSO. These stock solutions were diluted in DMSO and then diluted 1000× in culture medium (RPMI) before being added directly to the wells so as to give the desired final compound concentration. After a 24 hour incubation at 37° C./5% CO2, ATPLite™ (Perkin Elmer) was added to each well (1:10 v/v, 10 μL). The plate was then incubated at room temperature for 5 minutes and the emitted light was quantified on Viewlux with a measurement time of 0.3 seconds and binning 4×4.
The average results for each test compound were expressed as a percent (%) of the average control value reflecting cell viability. The average values across the concentrations tested were then plotted and the IC50 for was calculated by fitting the data to a 4-parameter IC50 equation using software from Graf it (Erithacus Software). Each experiment was repeated twice and the data are presented as the mean IC50 from both experiments.
For orientation: Cellular ATP, detected with luciferase, serves as a proxy for viable cell number.

Series [4] in a line: Human Hepatocyte Stability. It counts as in vitro ADME. The note with it: pooled human hepatocytes, 1 μM, 60 minute incubation; for half-life at 1 μM: read-out: Human t1/2. The method, then:
as §1, §2, §3, §4, §5, §6

Series [5] has as its target hERG (Homo sapiens (Human), UniProt Q12809). In words: hERG Ion Channel binding assay (3H astemizole displacement). The note with it: human, membranes of HEK293 cells stably expressing hERG, pH 7.4, probe 3H astemizole (1.5 nM); 30 μM; displacement of 3H astemizole, hERG-HEK293 membranes. The method, then: The activity of the compounds against the hERG ion channel was tested using a binding assay in stably transfected Human Embryonic Kidney cells (hERG-HEK293). hERG-HEK293 cells were cultured in MEM medium (Invitrogen)+10% FBS, glutamine and non-essential amino acids at 37° C. To prepare membranes, cells were homogenised on ice, centrifuged at 650×g for 10 minutes at +4° C., and the resulting supernatant centrifuged at 48000×g for 10 minutes at +4° C. The pellet was resuspended in ice-cold 50 mM Tris-HCl buffer, 5 mM KCl (pH 8.5) and stored frozen in aliquots until use.
For binding assays, membranes were thawed, re-suspended in assay buffer (10 mM HEPES pH 7.4, 0.1% BSA, 5 mM potassium chloride, 0.8 mM magnesium chloride, 130 mM sodium chloride, 1 mM sodium-EGTA, 10 mM glucose) and incubated with ^3H astemizole (1.5 nM), and with or without test compound at 25° C. for 60 minutes. Binding was determined following filtration of the membranes and washing in Tris-HCl buffer by scintillation counting of ^3H astemizole.
The degree of binding of compounds to the hERG ion channel (%) was obtained by measuring the binding of ^3H astemizole and its displacement by test compound. A value of 0% indicates no binding and a value of 100% indicates complete displacement of the radiolabelled ligand.

The mark [6] stands for this setting: pooled human hepatocytes, 1 μM, 60 minute incubation.

Chain of hERG (Q12809 whole entry): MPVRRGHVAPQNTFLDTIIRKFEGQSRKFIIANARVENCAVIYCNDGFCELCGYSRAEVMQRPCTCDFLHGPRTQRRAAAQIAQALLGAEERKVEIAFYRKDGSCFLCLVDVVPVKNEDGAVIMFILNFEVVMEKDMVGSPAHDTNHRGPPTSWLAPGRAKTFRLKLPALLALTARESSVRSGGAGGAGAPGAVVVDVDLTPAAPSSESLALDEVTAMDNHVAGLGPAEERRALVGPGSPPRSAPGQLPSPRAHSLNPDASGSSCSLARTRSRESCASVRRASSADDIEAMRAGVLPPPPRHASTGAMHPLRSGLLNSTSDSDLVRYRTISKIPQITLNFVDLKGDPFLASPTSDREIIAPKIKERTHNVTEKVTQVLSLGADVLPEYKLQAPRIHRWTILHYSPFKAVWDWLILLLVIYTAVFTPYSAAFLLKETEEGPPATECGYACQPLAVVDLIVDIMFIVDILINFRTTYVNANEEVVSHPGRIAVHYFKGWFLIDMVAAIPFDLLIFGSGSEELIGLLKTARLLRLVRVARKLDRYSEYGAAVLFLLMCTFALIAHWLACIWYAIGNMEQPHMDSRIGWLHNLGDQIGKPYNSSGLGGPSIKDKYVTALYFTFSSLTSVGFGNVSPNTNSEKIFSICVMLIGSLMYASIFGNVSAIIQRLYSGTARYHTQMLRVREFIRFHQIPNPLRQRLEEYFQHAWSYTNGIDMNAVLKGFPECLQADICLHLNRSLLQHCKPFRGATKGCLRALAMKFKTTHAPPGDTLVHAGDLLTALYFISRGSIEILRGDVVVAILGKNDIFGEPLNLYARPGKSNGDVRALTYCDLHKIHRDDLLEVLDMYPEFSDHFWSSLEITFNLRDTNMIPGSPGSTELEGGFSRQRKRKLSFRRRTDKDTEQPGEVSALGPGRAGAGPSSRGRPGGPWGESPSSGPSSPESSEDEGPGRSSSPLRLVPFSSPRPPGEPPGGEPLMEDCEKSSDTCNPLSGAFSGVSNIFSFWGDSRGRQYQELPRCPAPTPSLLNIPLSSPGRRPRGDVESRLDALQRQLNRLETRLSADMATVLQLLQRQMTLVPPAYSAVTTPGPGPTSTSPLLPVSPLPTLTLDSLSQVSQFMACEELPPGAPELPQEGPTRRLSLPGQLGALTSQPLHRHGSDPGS

On to `CC1(O)CCC(NS(=O)(=O)c2ccc(-c3ccc(F)cc3F)cc2)CC1` (stereo not shown) [ABD900, reference compound], for which, in series [1] (setting [6]), the “Human Clint” value is 6.3 uL/min/million cells and the “Human t1/2” value amounted to 3.67 h. The Solubility (in general, how much of the substance goes into solution per volume) in series [2] (pH 6.8) was determined as 120 µg/mL (≈ 315 µM). In addition, the half-inhibitory concentration (IC50) (usually the concentration that gives 50% inhibition) in series [3] was 1100 nM.
As to `CC(=O)N1CCC(CS(=O)(=O)c2ccc(-c3ccc(F)c(F)c3)cc2)CC1` [NASMP-02, 1-(4-(((3′,4′-Difluoro-[1,1′-biphenyl]-4-yl)sulfonyl)methyl)piperidin-1-yl)ethan-1-one], in series [1], the “metabolic stability (in words)” value is “exceptionally good stability”. In addition, in series [4], the hepatocyte CLint (as a rule, the capacity of the preparation to metabolise the compound, expressed as a volume cleared per time) at 1 μM is below 3 µL/min/1e6 cells and the half-life at 1 μM was above 7.67 h. Moreover, in series [2], the concentration in solution (solubility at 16 h) came to 32 µg/mL (≈ 81.3 µM). Besides, in series [5], the inhibition – broadly, the percentage by which the read-out fell short of the control – at 60 min, 30 µM is 30%. For the same compound, it took 7900 nM to reach half-maximal inhibition in series [3] (Homo sapiens, THP-1) (IC50).
`CC(=O)N1CCC(CS(=O)(=O)c2ccc(-c3cc(F)ccc3F)cc2)CC1` [NASMP-03, 1-(4-(((2′,5′-Difluoro-[1,1′-biphenyl]-4-yl)sulfonyl)methyl)piperidin-1-yl)ethan-1-one]: the “metabolic stability (in words)” value in series [1] is “exceptionally good stability”. In series [4], the hepatocyte CLint at 1 μM is below 3 µL/min/1e6 cells and the half-life at 1 μM is above 7.67 h. In series [2], the solubility (as a rule, the concentration that dissolves in the medium under given conditions) at 16 h was found to be 42 µg/mL (≈ 107 µM). The compound also yielded an inhibition at 60 min, 30 µM in series [5] of 20%. In addition, it took 3000 nM to reach half-maximal inhibition in series [3] (Homo sapiens, THP-1) (IC50).
`CC(=O)N1CCC(CS(=O)(=O)c2ccc(-c3ccc(C#N)cc3F)cc2)CC1` [NASMP-04, 4′-(((1-Acetylpiperidin-4-yl)methyl)sulfonyl)-2-fluoro-[1,1′-biphenyl]-4-carbonitrile] had an IC50 in series [3] (Homo sapiens, THP-1) of 1700 nM.
On to `CC(=O)N1CCC(CS(=O)(=O)c2ccc(-c3cccc(F)c3F)cc2)CC1` [NASMP-08, 1-(4-(((2′,3′-Difluoro-[1,1′-biphenyl]-4-yl)sulfonyl)methyl)piperidin-1-yl)ethan-1-one], for which, in series [3] (Homo sapiens, THP-1), the IC50 stood at 3800 nM.
In series [3] (Homo sapiens, THP-1), `CC(=O)N1CCC(CS(=O)(=O)c2ccc(-c3ccc(C#N)cc3)c(F)c2)CC1` [NASMP-10, 4′-(((1-Acetylpiperidin-4-yl)methyl)sulfonyl)-2′-fluoro-[1,1′-biphenyl]-4-carbonitrile] gave an IC50 of 3500 nM.
`CC(=O)N1CCC(CS(=O)(=O)c2ccc(-c3ncc(F)cc3F)c(F)c2)CC1` [NASMP-11, 1-(4-(((4-(3,5-Difluoropyridin-2-yl)-3-fluorophenyl)sulfonyl)methyl)piperidin-1-yl)ethan-1-one]: in series [4], the hepatocyte CLint at 1 μM is 3.3 µL/min/1e6 cells and the half-life at 1 μM is above 1 h. In addition, 1600 nM corresponded to half-maximal inhibition in series [3] (Homo sapiens, THP-1) (IC50).
In series [3] (Homo sapiens, THP-1), `CC(=O)N1CCC(CS(=O)(=O)c2ccc(-c3ccc(F)cc3F)c(C#N)c2)CC1` [NASMP-13, 4-(((1-Acetylpiperidin-4-yl)methyl)sulfonyl)-2′,4′-difluoro-[1,1′-biphenyl]-2-carbonitrile] came in with an IC50 of 1700 nM.
Take `CN(C)C(=O)N1CCC(CS(=O)(=O)c2ccc(-c3ccc(F)cc3F)cc2)CC1` [NASMP-14, 4-(((2′,4′-Difluoro-[1,1′-biphenyl]-4-yl)sulfonyl)methyl)-N,N-dimethylpiperidine-1-carboxamide]: in series [4], the hepatocyte CLint at 1 μM amounted to 28.2 µL/min/1e6 cells and the half-life at 1 μM was found to be 0.97 h. In series [3] (Homo sapiens, THP-1), this compound yielded an IC50 of 1400 nM.
For the compound `CC(=O)N1CCC(C)(CS(=O)(=O)c2ccc(-c3ccc(Cl)cc3C#N)cc2)CC1` [NASMP-16, 4′-(((1-Acetyl-4-methylpiperidin-4-yl)methyl)sulfonyl)-4-chloro-[1,1′-biphenyl]-2-carbonitrile], the “metabolic stability (in words)” value in series [1] is reported as “exceptionally good stability”. In addition, the half-life at 1 μM in series [4] is above 1 h. In series [3] (Homo sapiens, THP-1), the 50% inhibitory concentration (IC50) was 1500 nM.
For the compound `CC(=O)N1CCC(C(F)(F)S(=O)(=O)c2ccc(-c3ccc(F)cc3F)cc2)CC1` [NASMP-19, 1-(4-(((2′,4′-Difluoro-[1,1′-biphenyl]-4-yl)sulfonyl)difluoromethyl)piperidin-1-yl)ethan-1-one], in series [4], the hepatocyte CLint at 1 μM is 11.7 µL/min/1e6 cells and the half-life at 1 μM stood at 1.92 h. The solubility at 16 h in series [2] was found to be 27 µg/mL (≈ 62.9 µM). Moreover, the inhibition at 60 min, 30 µM in series [5] came to 21%. The compound further came in with an IC50 in series [3] (Homo sapiens, THP-1) of 2800 nM.
